Test results reported in PubChem BioAssay AID179 (DTP/NCI, 2004).
Calls of active or inactive are those of the source.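 Rule for the calls: active = compounds giving half or more protection of infected cells from virus-caused growth loss, again on retest; inactive = the rest.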 Where a SMILES comes first, the peptide text is derived from it.

Tested on: CEM cells HIV-1 protection, formazan growth assay
Test: NCI AIDS Antiviral Assay
Settings: for IC50: measured here: growth of uninfected CEM cells
Summary of the method: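 Soluble formazan readout of cell growth; CEM cells ± HIV-1; 5 drug concs. ≥50% protection → retest; ≥50% again = moderately active; reproducible 100% = confirmed active.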

Structure (SMILES) | EC50 [µM] | IC50 [µM] | outcome
CN1C/C(=C\c2cccs2)c2[nH]c(=O)c(C#N)c(-c3cccs3)c2C1 | > 200 | > 200 | –
COc1ccc(C(=O)NO)cc1 | > 200 | 25.1 | –
COc1c2c(c(N)c3ccc(=O)oc13)CCO2 | > 126 | > 126 | –
CN(C)c1c(-c2ccccc2)cc(-c2ccccc2)[nH]c1=O | > 64.6 | > 64.6 | –
O=c1[nH]c(O)c(/C=N/C(=S)NCc2ccccc2)c(=O)[nH]1 | > 200 | 195 | –
N#CCCN(CCC#N)c1ccc(/C=C(/NC(=O)c2cc([N+](=O)[O-])ccc2Cl)C(=O)NN)cc1 | > 10.7 | > 10.7 | –
CN(C)C1C(=O)C(C(=O)NCNC(CO)(CO)CO)=C(O)C2(O)C(=O)C3=C(O)c4c(O)cccc4C(C)(O)C3CC12 (configuration not stated) | > 200 | 132 | –
CCC(CC)n1cc(C(=O)NC(=O)NCCCCCOC(=O)CCCCCCCCCCC(=O)OCCCCCNC(=O)NC(=O)c2cn(C(CC)CC)c(=O)[nH]c2=O)c(=O)[nH]c1=O | > 20.9 | > 20.9 | –
CN(C)c1ccc(N=Nc2ccc3nc[nH]c3c2)cc1 | > 200 | 41.7 | –
C[N+](C)(C)CC(=O)N/N=C(/Cc1nc2ccc(Cl)cc2[nH]c1=O)C1=NS(=O)(=O)c2cc(S(N)(=O)=O)c(Cl)cc2N1 | > 269 | > 269 | –
NCC1(N2CCOCC2)C2CCCC21CO (configuration not stated) | > 1100 | > 1100 | –
CC(C)(C)NC(NC(C)(C)C)=C(/C=C(/Cl)[N+](=O)[O-])[N+](=O)[O-] | > 200 | 162 | –
CN(C)/C=C/c1nnnn1-c1ccc(I)cc1 | > 200 | 33.1 | –
Cn1c2ccc3cc2c(=S)c2cc(ccc21)OCCOCCOCCOCCOCCOCCO3 | > 200 | 186 | –
CC1=C2C3CCCC(C3=O)[C@H](C)C2CC1=O (some centres not stated) | – | – | inactive
CC(C)C(=O)NCC[C@@H](CNC(=O)OC(C)(C)C)NC(=O)OC(C)(C)C | > 200 | > 200 | –
Clc1ccc(C2NN=C3c4ccccc4OCC32)cc1 (configuration not stated) | > 200 | 4.27 | –
NCCN.NCCN.O=C[O-].O=C[O-].[Co+3].[O-][Cl+3]([O-])([O-])[O-] | – | – | inactive
CCOC(=O)/C(=C\c1cccc(Cl)c1)[Se]c1ccccc1 | > 14.1 | > 14.1 | –
Oc1ccc2ccccc2c1OCc1nnc(CCCCCCCCc2nnc(COc3c(O)ccc4ccccc34)o2)o1 | > 200 | 47.9 | –
O=C(N/C(=C/c1cccc([N+](=O)[O-])c1)c1nc2ccc(Cl)cc2[nH]1)c1ccccc1 | – | – | inactive
Cc1cn(C2C[C@H](O)[C@]3(CO)C[C@H]23)c(=O)[nH]c1=O (some centres not stated) | > 100 | > 100 | –

Structure (SMILES) | EC50 [µM] | IC50 [µM] | outcome
CC(=O)OCC1OC(SC2=N/C(=C\c3cc4c(=O)c5ccccc5sc4s3)C(=O)N2c2ccccc2)C(OC(C)=O)C(OC(C)=O)C1OC(C)=O (configuration not stated) | > 200 | 115 | –
Cc1ccc(S(=O)(=O)CNC(=S)CCCC(=S)NCS(=O)(=O)c2ccc(C)cc2)cc1 | – | – | inactive
COc1ccc(CCNCc2cccc(OC)c2OC)cc1OC | – | – | inactive
CC1=NN2C(c3ccc(C)cc3)=CSC2=NC(C)(C)C1 | > 174 | 141 | –
C=CCC1(OCc2ccccc2)C(=O)C(=O)OC1C1COC(C)(C)O1 (configuration not stated) | > 200 | > 200 | –
COc1ccc(C2OC[C@H]3O[C@@H](OCc4ccccc4)[C@H](O)[C@@H](O)[C@@H]3O2)cc1 (some centres not stated) | > 200 | 35.5 | –
N#Cc1ccc(/C=C2\Cc3ccccc3C2=O)cc1 | > 200 | > 200 | –
Nc1ncnc2c(C3OC(CO)C(O)C3O)c[nH]c12 (configuration not stated) | > 832 | 0.263 | –
CN(CCO)CNC(=O)C1=C(O)C2(O)C(=O)C3=C(O)c4c(O)cccc4C(C)(O)C3CC2C(N(C)C)C1=O (configuration not stated) | > 178 | > 178 | –
O=c1oc2c(-c3ccccc3)cccc2c(O)c1-c1ccccc1 | > 200 | 85.1 | –
O=C(c1ccco1)[N+]1=Cc2[nH]c3ccccc3c2CC1 | > 170 | 97.7 | –
C=C[C@H]1C=Cc2c(OC)cccc2[C@@H]1COP1(=S)NC(C)C(c2ccccc2)O1 (some centres not stated) | – | – | inactive
O=C(O)/C(=C\c1ccc(F)cc1)c1ccccc1 | > 537 | 309 | –
CC(C)CC(=O)CC(C)[C@]1(CCCOCc2ccccc2)C(=O)N2CCC3(C[C@@]24CCC[C@H]41)OCCO3 (some centres not stated) | > 200 | 35.5 | –
CS(=O)(=O)NOCCCCONS(C)(=O)=O | > 912 | > 912 | –
CCCCCCCCCCCCCC(=O)OCC1OC(OC)C(NC(=O)N(CCCl)N=O)C(O)C1O (configuration not stated) | > 18.6 | 12 | –
c1ccc2c(c1)OCc1nccn1-2 | > 200 | 97.7 | –
CC(=O)OCC12CCC3C4(C)CCCC(C)(C)C4CCC3(C)C1CC(C1=CC(=O)OC1O)O2 (configuration not stated) | > 200 | 1.05 | –
Cc1ccc(Oc2ccc(C)cc2[N+](=O)[O-])cc1 | – | – | inactive
C=C1C(=O)OC2/C=C(\C)C3OC3/C=C(/C(=O)OC)C(OC(C)=O)C(OC(=O)C(C)(O)C(C)OC(C)=O)C12 (configuration not stated) | > 129 | 0.832 | –
CCOC(=O)N1CCc2cc(OC)c(OC)cc2/C1=C/c1ccc(OC)c(OC)c1 | – | – | inactive
CCN(CC)C(=O)Cn1c(C)cc2ccccc21 | > 200 | > 200 | –

Structure (SMILES) | EC50 [µM] | IC50 [µM] | outcome
CC(=Nc1ccccc1C(=O)[O-])c1c([O-])ccc2c(C)cc(=O)oc12.[OH3+].[OH3+].[OH3+].[Zn+2] | > 2.29 | > 2.29 | –
C=C1C2CCC3C(CCC4C35CCC[C@]4(C)CN3CCO[C@H]35)(C2)[C@@H]1O (some centres not stated) | – | – | inactive
CCN1c2cc(Br)cc3[nH]c(=S)n(c23)CCC1C (configuration not stated) | 3.72 | 112 | –
COc1cc2ccnc3c2c(c1OC)-c1coc(SC)c1-3 | – | – | inactive
O=C1NC(SSC2=NNC3(C(=O)N2)c2ccccc2-c2ccccc23)=NNC12c1ccccc1-c1ccccc12 | – | – | inactive
O=C1c2cccc3cc([N+](=O)[O-])cc(c23)C(=O)N1CCN1CCCC1 | > 200 | 0.0832 | –
CC(=O)C(N=Nc1ccc(S(=O)(=O)Nc2onc(C)c2C)cc1)C(=O)Nc1cc(C)cc(C)c1 (configuration not stated) | > 200 | 30.2 | –
Nc1nc(Cl)c(/C=N\O)c(NCC2(CO)CCC2)n1 | > 20 | 11.5 | –
O=[N+]([O-])c1cc(Cc2cc(Cl)c(O)c([N+](=O)[O-])c2)cc(Cl)c1O | > 200 | 35.5 | –
CN/N=C(\C)C(CN1CCCCC1)C(C1=C(O)c2ccccc2OC1)c1ccccc1 (configuration not stated) | > 29.5 | > 29.5 | –
CC1C2(C)OC(=N)C(C#N)(C(c3cccc([N+](=O)[O-])c3)O2)C1(C#N)C#N (configuration not stated) | > 200 | 11.7 | –
CCOC(C[Se]CC(OCC)OCC)OCC | 37.2 | 112 | –
CC(C)N(/C(F)=N\C(=O)Nc1ccccc1C(F)(F)F)C(C)C | > 200 | 38.9 | –
CC1(C)CC23CC(C)(C)c4cccc(c42)OCc2ccc4ccc5ccc(nc5c4n2)COc2cccc1c23 | > 50.1 | > 50.1 | –
CC1(C)N=C(C(N)=O)c2[nH]cnc2N1 | > 200 | > 200 | –
CC(NC(=O)C1CCCN1C(=O)OC(C)(C)C)C(=O)OCc1ccccc1 (configuration not stated) | > 95.5 | 60.3 | –
N#CCCC(CCC#N)(CCC#N)NO | > 200 | > 200 | –
CCC12OC(COc3ccccc3)CN1CCS2 (configuration not stated) | > 257 | 132 | –
Cc1cccc(C)c1NC(=S)NC=C(C(N)=O)C(N)=O | > 200 | > 200 | –
COc1ccccc1NC(=S)N/C=C(\C#N)c1nc2ccccc2s1 | > 200 | 117 | –
O=C1c2ccccc2-c2cccc3cccc1c23 | > 16.2 | > 16.2 | –
CC1NC(=O)CNC(=O)CNC(=O)C(Cc2ccc(O)cc2)NC(=O)C(C(C)C)NC(=O)C(C)NC1=O (configuration not stated) (cyclo(GGAAVY); configuration not given here) | – | – | inactive

Structure (SMILES) | EC50 [µM] | IC50 [µM] | outcome
CCN1C2=NCCN2S(=O)(=O)c2ccccc21 | > 1000 | 479 | –
COc1cccc(CC2C(=O)NC(=O)NC2=O)c1 | > 200 | > 200 | –
O=C(O)c1nc(Cl)c(Cl)[nH]c1=O | > 200 | 55 | –
CC(=O)OC1C[C@@H](C)C2(C[C@H](O)c3ccoc3)C(=O)OC[C@]13C2CCC(O)C31CO1 (some centres not stated) | > 200 | > 200 | –
O=CC1CCC=CC1NC(=O)OCc1ccccc1 (configuration not stated) | – | – | inactive
COc1cccc(C2Nc3ccccc3C(=O)N2N2CCOCC2)c1 (configuration not stated) | > 200 | > 200 | –
CC1(C)CC2=C(Sc3ccccc3N2)C(=O)C1C(=O)C(=O)Nc1cc(Cl)ccc1Cl (configuration not stated) | > 148 | 64.6 | –
CC(C)(C)C#C[P+](c1ccccc1)(c1ccccc1)c1ccccc1 | > 2 | 0.012 | –
CCCCC(O)(c1ccccc1)C(O)(c1ccccc1)c1c(F)c(F)c(F)c(F)c1F (configuration not stated) | > 200 | 39.8 | –
CCOC(=O)NC(C(=O)OCC)(N1CCN(c2cc3c(cc2F)c(=O)c(C(=O)O)cn3CC)CC1)C(F)(F)F (configuration not stated) | > 200 | 145 | –
NC(Cc1ccc(S(=O)(=O)O)cc1)C(=O)NC(Cc1ccc(S(=O)(=O)O)cc1)C(=O)NC(Cc1ccc(S(=O)(=O)O)cc1)C(=O)O (configuration not stated) | > 200 | > 200 | –
O=C(O)c1cc(=O)c2cc3c(cc2o1)OCc1ccccc1-3 | > 93.3 | > 93.3 | –
CCN(CC)c1ccc(C(=C2C=CC(=[N+](CC)CC)C=C2)c2ccc(N(CC)CC)cc2)cc1 | – | – | inactive
C1CCC(OCc2nnn3c2CCC3)OC1 (configuration not stated) | – | – | inactive
Cc1cc(NC(=O)NC/C(Cl)=C/Cl)c2ccccc2n1 | > 200 | 29.5 | –
COc1cc(-c2cc(=O)c3c(O)c(OC)c(OC)cc3o2)ccc1O | > 11 | > 11 | –
Cc1sc(Nc2ccccc2[N+](=O)[O-])c(C#N)c1C | 15.5 | > 200 | –
CN1CCC2(CC1)SSC1(CCN(C)CC1)S2 | > 200 | 191 | –
CN(c1ccc(/C=C/c2ccccc2)cc1)P1(=O)NCCCO1 (configuration not stated) | > 41.7 | 28.2 | –
CCCCCc1c(CCCC)c(=O)[nH]c2cc(CNCC(OC)OC)ccc12 | > 200 | 11 | –
